Source: US8552002B2 (Novartis AG, priority 2004, dated 2013)

Key:
Assay type in all cases: biochemical
c-Abl = c-Abl (Homo sapiens, UniProt P00519); assay: Inhibitory activity against c-Abl (Example 207); conditions: Examples 171 to 206
FGFR3 (K650E) = molecular target: T1, FGFR3 (K650E) (Homo sapiens, UniProt P22607, K650E); assay: Recombinant GST-FGFR-3-K650E tyrosine kinase assay (33P into poly(Glu,Tyr)); conditions: 10 μM; Examples 171 to 206; read-out: FGFR3 inhibition at 10 μM
T1 construct: amino acids 411-806 of the cytoplasmic domain of human FGFR-3, N-terminally fused to GST; made in house; host or cells: Sf9 insect cells (baculovirus)

KDR = molecular target: T2, KDR (Homo sapiens, UniProt P35968); assay: Inhibitory activity against KDR (VEGF-R2), in vitro data of Examples 170 and 207; conditions: 10 μM; Examples 171 to 206; read-out: KDR inhibition at 10 μM
T2 construct: expressed in transfected cells; host or cells: CHO cells
In short: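 KDR tyrosine phosphorylation detected by luminescence after overnight 4° C capture of 20 μg lysate protein with PY20:AP antibody. Lysates came from cells given compound for 2 h at 37° C, then final 20 ng/ml VEGF for 5 min; compound-free medium as control.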

T1 sequence (P22607 411-806 K650E): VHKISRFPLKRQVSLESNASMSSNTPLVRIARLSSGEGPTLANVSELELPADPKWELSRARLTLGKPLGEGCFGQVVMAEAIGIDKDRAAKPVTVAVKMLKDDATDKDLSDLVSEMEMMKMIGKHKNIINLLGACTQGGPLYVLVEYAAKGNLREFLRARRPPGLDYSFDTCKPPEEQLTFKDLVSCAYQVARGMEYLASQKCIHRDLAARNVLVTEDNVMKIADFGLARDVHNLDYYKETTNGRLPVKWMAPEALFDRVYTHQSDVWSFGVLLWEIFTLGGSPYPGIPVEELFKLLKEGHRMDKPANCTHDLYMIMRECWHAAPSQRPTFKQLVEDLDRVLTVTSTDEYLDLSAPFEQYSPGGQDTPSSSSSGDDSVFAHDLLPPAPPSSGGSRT
Chain of c-Abl (P00519 whole entry): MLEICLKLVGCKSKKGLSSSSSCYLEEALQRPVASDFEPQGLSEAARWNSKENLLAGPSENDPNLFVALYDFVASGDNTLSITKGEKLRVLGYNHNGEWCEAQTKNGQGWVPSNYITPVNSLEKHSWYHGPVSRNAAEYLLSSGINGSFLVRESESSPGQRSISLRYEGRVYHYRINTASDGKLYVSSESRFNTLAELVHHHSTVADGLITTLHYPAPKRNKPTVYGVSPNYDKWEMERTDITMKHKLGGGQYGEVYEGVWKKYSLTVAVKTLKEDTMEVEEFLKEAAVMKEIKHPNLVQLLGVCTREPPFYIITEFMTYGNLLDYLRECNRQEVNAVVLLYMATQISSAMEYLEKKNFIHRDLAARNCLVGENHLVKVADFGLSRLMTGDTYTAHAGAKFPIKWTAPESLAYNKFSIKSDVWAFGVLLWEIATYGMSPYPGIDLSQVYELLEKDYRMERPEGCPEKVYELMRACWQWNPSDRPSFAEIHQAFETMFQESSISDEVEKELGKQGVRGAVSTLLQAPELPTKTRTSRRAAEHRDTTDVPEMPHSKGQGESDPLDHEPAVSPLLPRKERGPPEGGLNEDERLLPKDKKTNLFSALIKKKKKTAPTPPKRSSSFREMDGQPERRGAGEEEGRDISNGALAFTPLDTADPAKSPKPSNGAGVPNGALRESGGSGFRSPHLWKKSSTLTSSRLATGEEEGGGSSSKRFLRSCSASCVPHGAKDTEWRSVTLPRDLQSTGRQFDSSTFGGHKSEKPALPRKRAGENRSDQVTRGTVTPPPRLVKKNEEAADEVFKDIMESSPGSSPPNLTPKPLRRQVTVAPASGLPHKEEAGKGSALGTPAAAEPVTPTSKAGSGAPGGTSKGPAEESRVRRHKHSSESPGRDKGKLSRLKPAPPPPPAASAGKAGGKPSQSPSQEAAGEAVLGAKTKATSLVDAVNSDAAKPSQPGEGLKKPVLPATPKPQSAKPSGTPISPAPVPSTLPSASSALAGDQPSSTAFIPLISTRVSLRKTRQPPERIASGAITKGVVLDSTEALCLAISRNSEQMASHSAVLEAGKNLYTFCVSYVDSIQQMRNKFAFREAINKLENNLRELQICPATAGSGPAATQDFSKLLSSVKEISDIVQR
T2 sequence (P35968 20-1356): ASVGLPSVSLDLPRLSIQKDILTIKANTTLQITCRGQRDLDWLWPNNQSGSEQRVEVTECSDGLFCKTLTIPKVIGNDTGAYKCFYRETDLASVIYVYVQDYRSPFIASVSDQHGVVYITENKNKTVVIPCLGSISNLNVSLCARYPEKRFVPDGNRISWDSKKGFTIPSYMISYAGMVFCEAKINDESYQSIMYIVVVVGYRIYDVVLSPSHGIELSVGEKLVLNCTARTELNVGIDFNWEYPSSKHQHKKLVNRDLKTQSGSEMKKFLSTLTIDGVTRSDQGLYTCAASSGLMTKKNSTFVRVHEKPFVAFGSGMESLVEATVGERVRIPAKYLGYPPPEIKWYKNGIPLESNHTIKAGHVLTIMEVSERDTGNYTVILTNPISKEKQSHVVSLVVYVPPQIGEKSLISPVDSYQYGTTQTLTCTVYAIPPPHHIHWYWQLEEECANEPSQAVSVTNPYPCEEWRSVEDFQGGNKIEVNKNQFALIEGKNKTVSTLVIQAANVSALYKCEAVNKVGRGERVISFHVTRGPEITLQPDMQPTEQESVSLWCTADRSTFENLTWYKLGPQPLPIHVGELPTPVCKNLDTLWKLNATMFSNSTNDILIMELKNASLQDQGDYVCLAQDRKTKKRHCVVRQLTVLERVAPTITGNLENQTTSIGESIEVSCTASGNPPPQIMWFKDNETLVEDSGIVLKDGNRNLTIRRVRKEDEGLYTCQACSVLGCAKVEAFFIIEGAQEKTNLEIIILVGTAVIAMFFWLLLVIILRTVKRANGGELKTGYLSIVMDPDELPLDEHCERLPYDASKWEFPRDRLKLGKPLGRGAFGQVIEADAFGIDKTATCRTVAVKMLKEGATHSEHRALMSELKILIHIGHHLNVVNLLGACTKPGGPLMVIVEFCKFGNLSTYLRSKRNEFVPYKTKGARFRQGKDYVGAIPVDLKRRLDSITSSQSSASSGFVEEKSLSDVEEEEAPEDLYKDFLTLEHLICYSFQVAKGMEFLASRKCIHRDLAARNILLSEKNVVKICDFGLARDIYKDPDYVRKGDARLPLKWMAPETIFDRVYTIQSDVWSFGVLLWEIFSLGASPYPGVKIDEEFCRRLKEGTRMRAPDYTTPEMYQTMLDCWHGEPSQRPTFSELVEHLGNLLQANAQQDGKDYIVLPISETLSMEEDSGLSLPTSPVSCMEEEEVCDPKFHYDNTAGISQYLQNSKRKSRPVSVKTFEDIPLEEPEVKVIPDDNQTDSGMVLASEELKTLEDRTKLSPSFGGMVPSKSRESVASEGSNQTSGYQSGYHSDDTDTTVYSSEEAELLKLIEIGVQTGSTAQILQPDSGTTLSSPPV

| Structure (SMILES) | inhibition at 10 µM (c-Abl) | inhibition at 10 µM (FGFR3 (K650E)) | inhibition at 10 µM (KDR) |
| --- | --- | --- | --- |
| Cc1ccc(C(=O)Nc2cccc(C(F)(F)F)c2)cc1NC(=O)N(C)c1cc(Nc2ccc(N3CCN(C)CC3)cc2)ncn1 [Example 186, 4-Methyl-3-(3-methyl-3-{6-[4-(4-methyl-piperazin-1-yl)-phenylamino]-pyrimidin-4-yl}-ureido)-N-(3-trifluoromethyl-phenyl)-benzamide] | 79 to 100% | 56 to 98% | 87 to 100% |
| Cc1ccc(NC(=O)c2cccc(C(F)(F)F)c2)cc1NC(=O)N(C)c1cc(Nc2ccc(C(=O)N3CCN(C)CC3)cc2)ncn1 [Example 187, N-[4-Methyl-3-(3-methyl-3-{6-[4-(4-methyl-piperazine-1-carbonyl)-phenylamino]-pyrimidin-4-yl}-ureido)-phenyl]-3-trifluoromethyl-benzamide] | 79 to 100% | 56 to 98% | 87 to 100% |
| Cc1ccc(NC(=O)c2cccc(C(F)(F)F)c2)cc1NC(=O)N(C)c1cc(Nc2cccc(N3CCN(C)CC3)c2)ncn1 [Example 188, N-[4-Methyl-3-(3-methyl-3-{6-[3-(4-methyl-piperazin-1-yl)-phenylamino]-pyrimidin-4-yl}-ureido)-phenyl]-3-trifluoromethyl-benzamide] | 79 to 100% | 56 to 98% | 87 to 100% |
| Cc1ccc(NC(=O)c2cccc(C(F)(F)F)c2)cc1NC(=O)N(CCN1CCN(C)CC1)c1cc(Nc2ccccc2)ncn1 [Example 189, N-{4-Methyl-3-[3-[2-(4-methyl-piperazin-1-yl)-ethyl]-3-(6-phenylamino-pyrimidin-4-yl)-ureido]-phenyl}-3-trifluoromethyl-benzamide] | 79 to 100% | 56 to 98% | 87 to 100% |
| Cc1ccc(NC(=O)c2cccc(C(F)(F)F)c2)cc1NC(=O)N(CCc1ccccn1)c1cc(Nc2ccccc2)ncn1 [Example 190, N-{4-Methyl-3-[3-(6-phenylamino-pyrimidin-4-yl)-3-(2-pyridin-2-yl-ethyl)-ureido]-phenyl}-3-trifluoromethyl-benzamide] | 79 to 100% | 56 to 98% | 87 to 100% |
| Cc1ccc(NC(=O)c2cccc(C(F)(F)F)c2)cc1NC(=O)N(CCc1ccccn1)c1cc(Nc2ccc(N3CCN(C)CC3)cc2)ncn1 [Example 191, N-[4-Methyl-3-[3-{6-[4-(4-methyl-piperazin-1-yl)-phenylamino]-pyrimid-in-4-yl]-3-(2-pyridin-2-yl-ethyl)-ureido]-phenyl}-3-trifluoromethyl-benzamide] | 79 to 100% | 56 to 98% | 87 to 100% |
| CCN(C(=O)Nc1cc(NC(=O)c2cccc(C(F)(F)F)c2)ccc1C)c1cc(Nc2ccc(N3CCN(C)CC3)cc2)ncn1 [Example 192, N-[3-(3-Ethyl-3-{6-[4-(4-methyl-piperazin-1-yl)-phenylamino]-pyrimidin-4-yl}-ureido)-4-methyl-Phenyl]-3-trifluoromethyl-benzamide] | 79 to 100% | 56 to 98% | 87 to 100% |
| Cc1ccc(NC(=O)c2cccc(C(F)(F)F)c2)cc1NC(=O)N(Cc1cccs1)c1cc(Nc2ccc(N3CCN(C)CC3)cc2)ncn1 [Example 193, N-[4-Methyl-3-(3-{6-[4-(4-methyl-piperazin-1-yl)-phenylamino]-pyrimid-in-4-yl}-3-thiophen-2-ylmethyl-ureido)-phenyl]-3-trifluoromethyl-benzamide] | 79 to 100% | 56 to 98% | 87 to 100% |
| Cc1ccc(NC(=O)c2ccc(CN3CCN(C)CC3)c(C(F)(F)F)c2)cc1NC(=O)N(C)c1cc(Nc2ccccc2)ncn1 [Example 195, N-{4-Methyl-3-[3-methyl-3-(6-phenylamino-pyrimidin-4-yl)-ureido]-phenyl}-4-(4-methyl-piperazin-1-ylmethyl)-3-trifluoromethyl-benzamide] | 79 to 100% | 56 to 98% | 87 to 100% |
